Structures can show the parent of a compound that is named as a salt. Where two headings read alike, the source gives them in different places.
What was measured:
PIM-1 = PIM-1 (Homo sapiens (Human), UniProt P11309); experiment: PIM-1 Enzyme Assay; format: biochemical; conditions: 35 μM ATP, 0.25 nM PIM-1
Summary of the method: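 Radiometric kinase assay in 20 mM K+MOPS pH 7.4, 10 mM MgCl2, 0.005% Tween-20, 1 mM DTT, 2% DMSO final; 60 min at 22° C, stopped with H3PO4, product captured on P81 filter and counted by scintillation. IC50 from 4-parameter logistic fit of percent of control.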

recombinant rat PIM-3 = recombinant rat PIM-3 (Rattus norvegicus (Rat), UniProt O70444); experiment: PIM-3 Enzyme Assay; conditions: 30 μM ATP, 0.5 nM PIM-3
[1] = biological target: GST-tagged recombinant full-length human PIM-2 (Homo sapiens (Human), UniProt Q9P1W9); experiment: PIM-2 Enzyme Assay; conditions: 4 μM ATP, […] PIM-2
Sequence of GST-tagged recombinant full-length human PIM-2 (Q9P1W9 whole entry): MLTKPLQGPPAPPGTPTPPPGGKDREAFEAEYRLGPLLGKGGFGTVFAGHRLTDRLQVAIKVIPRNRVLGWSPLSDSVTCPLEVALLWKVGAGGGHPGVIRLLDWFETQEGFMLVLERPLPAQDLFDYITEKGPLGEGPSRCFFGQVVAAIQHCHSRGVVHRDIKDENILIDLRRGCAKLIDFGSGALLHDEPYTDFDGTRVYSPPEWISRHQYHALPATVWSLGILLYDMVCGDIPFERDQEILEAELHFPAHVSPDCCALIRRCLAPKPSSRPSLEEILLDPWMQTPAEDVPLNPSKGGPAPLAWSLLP

Sequence of PIM-1 (P11309 whole entry, species assumed): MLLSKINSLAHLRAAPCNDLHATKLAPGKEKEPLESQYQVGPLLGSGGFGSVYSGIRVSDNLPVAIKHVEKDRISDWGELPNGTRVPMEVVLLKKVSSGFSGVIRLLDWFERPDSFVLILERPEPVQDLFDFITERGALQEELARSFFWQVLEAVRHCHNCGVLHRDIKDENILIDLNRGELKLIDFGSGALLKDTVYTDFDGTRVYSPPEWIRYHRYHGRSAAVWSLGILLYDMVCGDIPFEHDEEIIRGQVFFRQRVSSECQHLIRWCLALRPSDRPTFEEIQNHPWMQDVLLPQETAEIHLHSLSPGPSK

| Structure (SMILES) | IC50 (PIM-1) [nM] | IC50 (recombinant rat PIM-3; read-out: PIM-3 IC50) [nM] | IC50 ([1]; read-out: PIM-2 IC50) [nM] | IC50 (recombinant rat PIM-3; PIM-3 IC50 (nM)) [nM] | IC50 ([1]; PIM-2 IC50 (nM)) [nM] | IC50 (PIM-1; dihydrochloride) [nM] | IC50 (recombinant rat PIM-3; read-out: PIM-3 IC50, dihydrochloride) [nM] | IC50 ([1]; read-out: PIM-2 IC50, dihydrochloride) [nM] |
| --- | --- | --- | --- | --- | --- | --- | --- | --- |
| F[C@H]1CNCC[C@@H]1Oc1cccc2ccc(-c3nnc4ccccn34)nc12 (relative stereo) [Example 25, 2-([1,2,4]triazolo[4,3-a]pyridin-3-yl)-8-((trans)-3-fluoropiperidin-4-yloxy)quinoline] | 4 | 20 | 686 |  |  |  |  |  |
| Fc1ccc2nnc(-c3ccc4cccc(O[C@H]5CCNC[C@H]5F)c4n3)n2c1 (relative stereo) [Example 59, 2-(6-fluoro-[1,2,4]triazolo[4,3-a]pyridin-3-yl)-8-((cis)-3-fluoropiperidin-4-yloxy)quinoline] | 55 | 98 | 2870 |  |  |  |  |  |
| Fc1cc(O[C@H]2CCNC[C@H]2F)c2nc(-c3nnc4ccccn34)ccc2c1 (relative stereo) [Example 88, 2-([1,2,4]triazolo[4,3-a]pyridin-3-yl)-6-fluoro-8-((cis)-3-fluoropiperidin-4-yloxy)quinoline] | 8 | 24 | 502 |  |  |  |  |  |
| FC1CCNCCC1Oc1cccc2ccc(-c3nnc4ccccn34)nc12 (single isomer, unassigned) [Example 47, 2-([1,2,4]triazolo[4,3-a]pyridin-3-yl)-8-(-5-fluoroazepan-4-yloxy)quinoline dihydrochloride] | 32 |  |  | 41 | 1170 |  |  |  |
| FC1CCNCCC1Oc1cccc2ccc(-c3nnc4ccccn34)nc12 (single isomer, unassigned) [Example 48, 2-([1,2,4]triazolo[4,3-a]pyridin-3-yl)-8-(5-fluoroazepan-4-yloxy)quinoline dihydrochloride] | 0.7 |  |  | 4 | 147 |  |  |  |
| FC1CCNCCC1Oc1cccc2ccc(-c3nnc4ccccn34)nc12 (single isomer, unassigned) [Example 49, 2-([1,2,4]triazolo[4,3-a]pyridin-3-yl)-8-(5-fluoroazepan-4-yloxy)quinoline dihydrochloride] | 0.92 |  |  | 2 | 100 |  |  |  |
| FC1CCNCCC1Oc1cccc2ccc(-c3nnc4ccccn34)nc12 (single isomer, unassigned) [Example 50, 2-([1,2,4]triazolo[4,3-a]pyridin-3-yl)-8-(5-fluoroazepan-4-yloxy)quinoline dihydrochloride] | 12 |  |  | 8 | 290 |  |  |  |
| Fc1cc(OC2CCNCCC2F)c2nc(-c3nnc4ccccn34)ccc2c1 (single isomer, unassigned) [Example 90, cis-2-([1,2,4]triazolo[4,3-a]pyridin-3-yl)-6-fluoro-8-5-fluoroazepan-4-yloxy)quinoline] | 0.4 | 2 | 131 |  |  |  |  |  |
| Fc1cc(OC2CCNCCC2F)c2nc(-c3nnc4ccccn34)ccc2c1 (single isomer, unassigned) [Example 91, trans-2-([1,2,4]triazolo[4,3-a]pyridin-3-yl)-6-fluoro-8-5-fluoroazepan-4-yloxy)quinoline] | 0.8 | 0.9 | 39 |  |  |  |  |  |
| Cc1ccn2c(-c3ccc4cccc(OC5CCNCCC5F)c4n3)nnc2c1 (single isomer, unassigned) [Example 92, cis-8-5-fluoroazepan-4-yloxy)-2-(7-methyl-[1,2,4]triazolo[4,3-a]pyridin-3-yl)quinoline] | 1 | 3 | 244 |  |  |  |  |  |
| Cc1ccc2nnc(-c3ccc4cccc(OC5CCNCCC5F)c4n3)n2c1 (single isomer, unassigned) [Example 99, 8-((trans)-5-fluoroazepan-4-yloxy)-2-(6-methyl-[1,2,4]triazolo[4,3-a]pyridin-3-yl)quinoline dihydrochloride] |  |  |  |  |  | 17.4 | 39.7 | 1000 |
| Cc1ccc2nnc(-c3ccc4cccc(OC5CCNCCC5F)c4n3)n2c1 (single isomer, unassigned) [Example 100, 8-((trans)-5-fluoroazepan-4-yloxy)-2-(6-methyl-[1,2,4]triazolo[4,3-a]pyridin-3-yl)quinoline] | 1.5 | 2 | 352 |  |  |  |  |  |
| Fc1cc(OC2CCNCCC2F)c2nc(-c3nnc4ccccn34)ccc2c1 (single isomer, unassigned) [Example 120, 2-([1,2,4]triazolo[4,3-a]pyridin-3-yl)-6-fluoro-8-((cis)-5-fluoroazepan-4-yloxy)quinoline] | 11 | 10.9 | 959 |  |  |  |  |  |
| Fc1cc(OC2CCNCCC2F)c2nc(-c3nnc4ccccn34)ccc2c1 (single isomer, unassigned) [Example 121, 2-([1,2,4]triazolo[4,3-a]pyridin-3-yl)-6-fluoro-8-(trans-5-fluoroazepan-4-yloxy)quinoline] | 30.5 | 16.1 | 520 |  |  |  |  |  |
| Cc1ccn2c(-c3ccc4cccc(OC5CCNCCC5F)c4n3)nnc2c1 (single isomer, unassigned) [Example 122, 8-((cis-4,5)-5-fluoroazepan-4-yloxy)-2-(7-methyl-[1,2,4]triazolo[4,3-a]pyridin-3-yl)quinoline] | 17.5 | 23.5 | 1000 |  |  |  |  |  |
| c1cc(OC2CCCNCC2)c2nc(-c3nnc4ccccn34)ccc2c1 (single isomer, unassigned) [Example 127, 2-([1,2,4]triazolo[4,3-a]pyridin-3-yl)-8-(azepan-4-yloxy)quinoline] | 4.8 | 6.8 | 438 |  |  |  |  |  |
| c1cc(OC2CCCNCC2)c2nc(-c3nnc4ccccn34)ccc2c1 (single isomer, unassigned) [Example 128, 2-([1,2,4]triazolo[4,3-a]pyridin-3-yl)-8-(azepan-4-yloxy)quinoline] | 19.1 | 79.4 | 1000 |  |  |  |  |  |
| O[C@H]1CC[C@H](Nc2cccc3ccc(-c4nnc5ccccn45)nc23)CC1 [Example 3, (trans)-4-(2-([1,2,4]Triazolo[4,3-a]pyridin-3-yl)quinolin-8-ylamino)cyclohexanol] | 3 | 25 | 807 |  |  |  |  |  |
| c1cc(N[C@H]2CCNC2)c2nc(-c3nnc4ccccn34)ccc2c1 [Example 4, (S)-2-([1,2,4]Triazolo[4,3-a]pyridin-3-yl)-N-(pyrrolidin-3-yl)quinolin-8-amine] | 22 | 105 | 6020 |  |  |  |  |  |
| c1cc(N[C@@H]2CCNC2)c2nc(-c3nnc4ccccn34)ccc2c1 [Example 5, (R)-2-([1,2,4]Triazolo[4,3-a]pyridin-3-yl)-N-(pyrrolidin-3-yl)quinolin-8-amine] | 5 | 20 | 2020 |  |  |  |  |  |
| CC(C)(C)OC(=O)NCCCNc1cccc2ccc(-c3nnc4ccccn34)nc12 [Example 6, tert-Butyl 3-(2-([1,2,4]triazolo[4,3-a]pyridin-3-yl)quinolin-8-ylamino)propylcarbamate] | 32 | 155 | 10000 |  |  |  |  |  |
| NCCCNc1cccc2ccc(-c3nnc4ccccn34)nc12 [Example 7, N1-(2-([1,2,4]Triazolo[4,3-a]pyridin-3-yl)quinolin-8-yl)propane-1,3-diamine] | 5 | 35 | 1040 |  |  |  |  |  |
| COC(=O)[C@@H]1C[C@H](Oc2cccc3ccc(-c4nnc5ccccn45)nc23)CN1 [Example 87, (2S,4S)-methyl 4-(2-([1,2,4]triazolo[4,3-a]pyridin-3-yl)quinolin-8-yloxy)pyrrolidine-2-carboxylate] | 167 | 248 |  |  |  |  |  |  |

— patent publication US8575145B2, “Triazolopyridine compounds as PIM kinase inhibitors” (Array BioPharma Inc., priority 2008, dated 2013)
